Experimental data reported in US8802439B2, “Methods for enhancing infectivity of retroviruses” (priority 2009, dated 2014).
“Also recorded” adds a separate entry of the source.

Experiments:
Pin1 PPIase = Pin1 PPIase (Homo sapiens, UniProt Q13526); details: Uchida et al. 2003; cited from earlier work
HCV = HCV infectivity titer of supernatants from persistently infected HUH-7 cells; type: cell-based; details: PiB 16 μM and 8 μM, 1 hour pre-treatment plus 9 hours at 37° C.
Procedure: (§1) Cells persistently infected with HCV were treated with vehicle (DMSO), an MTP inhibitor (BMS-200150) capable of inhibiting HCV secretion, or with two doses of PiB (16 μM and 8 μM). After 1 hour of pre-treatment at 37° C., cells were washed with warm PBS and further incubated in normal medium containing the same drugs for an additional 9 hours at 37° C. Cell supernatants containing infectious HCV were collected for infectivity titer determination.
as §1, with “Infection assays for HCV: Persistently” for “Cells persistently”, “cells” for “with HCV”, “inhibitors” for “drugs”, “determination. […] Note that Pin1 is able to block HIV-1 in the HUH-7 cell line used to propagate HCV.” for “determination.”
Persistently infected HUH-7 cells were treated with solvent DMSO (circles), or increasing concentrations of PiB (squares). After 1 hour of pre-treatment cells were washed and further incubated in normal medium containing the same inhibitors for an additional 9 hours at 37° C. Cell supernatants containing infectious HCV were collected for infectivity titer determination.

HIV-1 [1] = test: Single-round infectivity on TZM-bl cells of HIV-1 produced in Pin1-inhibited 293T cells (Galacton-Star galactosidase assay); type: cell-based
From the text: Viral inocula from transfections above were normalized to equal virion particle number via p24 ELISA and used to infect target CD4^+ HeLa cells (1×10^5 TZM-bl). Infectivity was scored using the Galacton-Star enzymatic galactosidase activity assay, and infectivity quantified by relative […] units (R.F.U).
(§2) Plasmids: Laboratory-adapted provirus NL4.3, and the CypA-independent NL4.3 CAi2 were kindly provided by Akio Adachi (Department of Virology, Institute of Health Biosciences, The University of Tokushima Graduate School, JAPAN). Mutant R9G89V was a gift from P. Gallay (TSR1) as were NL4.3-GFP and SIV-GFP (originally Dana Gabuzda, Dana Farber Cancer Institute). NL4.3 A92E was kindly provided by W. Phares (Genetics Unit, Novartis Forschungsinstitut, Vienna, Austria). R9Δgp160 plasmid clone was kindly provided by C. Aiken (Vanderbilt Medical Center). VSV-G (CMV-VSV-G) was kindly provided by D. Trono (École Polytechnique Fédérale de Lausanne). Both bMLV-GFP and nMLV-GFP in the form of pCIG3-N, pCIG3-B as well as pCNCG were kindly provided by J. Stoye (National Institute for Medical Research, UK). Isomerase mutant Pin1 (pFLAG-Pin1R68,69A) and WW-domain mutant Pin1 (pFLAG-Pin1 W34A) were constructed by site-directed mutagenesis. Pseudotyping experiments were performed using DNA constructs encoding the VSV-G generously provided by D. Trono. Human Pin1 was cloned into pFLAG (Sigma-Aldrich) making pFLAG-Pin1. Viruses were produced by transfection of 293T cells using either GeneJuice (Novagen) or calcium phosphate. […] All viruses were harvested 24-48 hours post-transfection and filtered (0.2-μM filter, Steriflip Millipore). HIV-1 viruses were normalized by p24 ELISA (Alliance HIV-1 p24 Antigen ELISA Kit, Perkin Elmer), and/or were normalized via the EnzChek® Reverse Transcriptase Assay Kit (E-22064) (Molecular Probes).
Infection assays for retrovirus: Single-round infections: CD4^+ TZM-bl 100,000 cells/well/mL were seeded onto 24-well plates 24 hours prior to infection. These cells were infected in quadruplicate to 24-well plates. Infectivity was scored using an enzymatic galactosidase activity assay. Specifically, infected TZM-bl cells were washed and lysed, and 20 μl of lysate was transferred to a 96-well plate for detecting β-galactosidase activity. 100 μl of reaction buffer Galacton-Star substrate (Applied Biosystems, Bedford, Mass.), diluted 1:50, was added to 20 μl of lysate, and the light emission was measured over 1 second in a microplate luminometer after 30 minutes incubation. For human PBMC infections, cells were exposed to 10 ng of wild-type virus for 6 hours, washed, and split into two flasks: one with 10 μM PiB added on day 0 and 3, and one without PiB. Replication was monitored by p24 ELISA. For measuring infectivity of GFP-virus, 50,000 TZMb1, sMAGI, OMK, Vero, BSC-1 and CV-1 cells/well/mL were seeded onto 6-well plates respectively 24 hours prior to infection. Viruses were used to infect in duplicate wells, incubated for 48 hours, washed with PBS, trypsinized, fixed in 1% formaldehyde and subsequently analyzed by fluorescence-activated cell sorting (FACS) for percentage cells infected.
To examine a potential role for Pin1 in HIV-1 replication we used two inhibitors of Pin1: juglone and PiB. […] 293T cells were transfected with a proviral construct encoding wild-type HIV-1 in the presence or absence of PiB or juglone.

E. coli PPIase, parvulin = E. coli PPIase, parvulin (Escherichia coli, UniProt P0A9L5); details: covalent modification of two cysteine residues, slow process; cited from earlier work
E. coli PPIase, parvulin, sequence (P0A9L5 whole entry): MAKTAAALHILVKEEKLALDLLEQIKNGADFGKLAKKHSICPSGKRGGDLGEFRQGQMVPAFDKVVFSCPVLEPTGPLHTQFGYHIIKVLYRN

[2] = test system: other prolyl isomerases such as CypA or FKBP; details: cited from earlier work
HIV-1 [3] = test: HIV-1 viral production in 293T producer cells, p24 ELISA of supernatants; type: cell-based; details: 293T cells transfected with NL4.3; 2.0 μM juglone, 2.0 μM or 10.0 μM PiB
From the text: as §2, with “HIV-1 viruses were normalized by p24 ELISA (Alliance HIV-1 p24 Antigen ELISA Kit, Perkin Elmer), and/or were normalized via the EnzChek® Reverse Transcriptase Assay Kit (E-22064) (Molecular Probes).” left out

Pin1 PPIase, sequence (Q13526 whole entry): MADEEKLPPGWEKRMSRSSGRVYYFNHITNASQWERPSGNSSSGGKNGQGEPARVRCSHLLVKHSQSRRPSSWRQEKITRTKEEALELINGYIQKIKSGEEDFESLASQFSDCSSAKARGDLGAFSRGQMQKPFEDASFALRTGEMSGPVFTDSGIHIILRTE

CN1C(=O)c2ccc3c4c(ccc(c24)C1=O)C(=O)N(C)C3=O [PiA, 2,7-dimethylbenzo[lmn][3,8]phenanthroline-1,3,6,8 (2H,7H)-tetrone]
inhibition of the PPIase activity of Pin1 (Pin1 PPIase): potently inhibit

O=C1c2ccccc2CN1C1CCN(CCC(c2ccccc2)c2ccccc2)CC1 [BMS-200150]
infectious HCV in cell supernatants (infectivity titer) (HCV): virtual absence of particles

O=C1C=CC(=O)c2c(O)cccc21 [juglone, 5-hydroxy-1,4-naphthoquinone]
boost of infectivity (HIV-1 [1]): 2 fold | inactivation of E. coli parvulin (E. coli PPIase, parvulin): inactivates | inhibition of other PPIase families (CypA, FKBP) [2]: do not inhibit; also recorded: not affected | viral production (HIV-1 capsid in viral supernatants by p24 ELISA) (HIV-1 [3]): Neither inhibitor influences viral production; also recorded: do not alter viral production

CCOC(=O)CN1C(=O)c2ccc3c4ccc5c6c(ccc(c7ccc(c2c37)C1=O)c64)C(=O)N(CC(=O)OCC)C5=O [PiJ, diethyl-1,3,8,10-tetrahydro-1,3,8,10-tetraoxoanthra[2,1,9-def:6,5,10-d′e′f′]diisoquinoline-2,9-diacetate]
inhibition of the PPIase activity of Pin1 (Pin1 PPIase): potently inhibit
